The assay has as its system T cells isolated from mouse spleens. Put plainly: T cell proliferation inhibition (CFSE flow cytometry, anti-CD3/anti-CD28 stimulation). Conditions: mouse spleen T cells, 3 days; for inhibition at 0.01 µM / inhibition at 0.1 µM / inhibition at 1 µM / inhibition at 10 µM / inhibition at 30 µM / inhibition at 50 µM: Mus musculus, T-cell, 72 h, read-out: Proliferation inhibition rate (%). In kind it is cell-based. The procedure: To verify the T cell proliferation inhibitory effect of the compounds according to the present invention, the following experiment was performed based on flow cytometry analysis using carboxyfluorescein diacetate succinimidyl ester (CFSE), a fluorescent dye that binds to intracellular molecules via covalent bonds.
Spleens were extracted from 7-week-old C57BL/6 mice, ground, and then separated into single cells using a strainer (40 μm pore size, SPL). Red blood cells were removed using ACK (Ammonium-Chloride-Potassium) lysis buffer to isolate white blood cells.
Finally, using a MACS Magnetic Stand and LS column, T cells were isolated from the spleen.
The T cells isolated from the spleen were resuspended in 1 mL of free medium (RPMI-1640+200 U/mL penicillin+200 μg/mL streptomycin), and 0.3 μL of CFSE (10 mM) was added. The mixture was incubated at 37° C. for 5 minutes.
Free medium (10 mL) was added to stop the reaction, and the cells were centrifuged to obtain the cell pellet.
RPMI 1640 medium containing 10% FBS, 100 U/mL penicillin, 100 μg/mL streptomycin, and resuspended the cells. The cells were then seeded into a 96-well plate at a density of 2×10^5 cells per well and activated with CD3 and CD28 antibodies (0.5 μg/mL each) to activate T cells.
The compound diluted in DMSO was added at concentrations of 10 nM, 100 nM, 1 μM, 10 μM, 30 μM, and 50 μM, with three wells per concentration, and cultured at 37° C. and 5% CO2 for three days. The cells were then analyzed using a FACS Canto instrument.
The proliferation inhibition rate (%) was calculated using the following formula: […]
(Flow cytometry measures light scatter and fluorescence of single cells or particles in a stream.)

SMILES strings stand for the structures.

For `CN1CCN(CCCCCCCCCCCCNC(=O)c2ccc(F)cn2)CC1` [Compound 203, 5-Fluoro-N-(12-(4-methylpiperazin-1-yl)dodecyl)picolinamide], the inhibition at 0.01 µM (compound 10 nM) is -4.49%. Further, the inhibition at 0.1 µM (compound 100 nM) was determined as 1.16%. In addition, under “compound 1 μM”, the inhibition at 1 µM was 6.8%. Moreover, for the setting “compound 10 μM”, the inhibition at 10 µM came to 100%. Where the note is “compound 30 μM”, the inhibition at 30 µM was 100%. The inhibition at 50 µM (compound 50 μM) turned out to be 100%.

As to `Nc1nc(NC(=O)CCCCCCCCCCCCN2CCC(O)CC2)nc2nc[nH]c12` [Compound 13, 12-(4-hydroxypiperidin-1-yl)dodecyl-N-(6-aminopurine-2-yl) carboxamide], the “Proliferation inhibition rate (%)” value runs as follows: (compound 10 nM, listed as GO87, 0.01 µM) 9.13%; (compound 100 nM, listed as GO87, 0.1 µM) 1.71%; (compound 10 μM, listed as GO87, 10 µM) 81.15%.

Turning to `COc1ccc(C(=O)NCCCCCCCCCCCCN2CCN(C)CC2)nc1` [Compound 204, 5-methoxy-N-(12-(4-methylpiperazin-1-yl)dodecyl)picolinamide], the inhibition at 0.01 µM (compound 10 nM) is -2.6%. For the same compound, the inhibition at 0.1 µM (compound 100 nM) is -0.14%. Besides, where the note is “compound 1 μM”, the inhibition at 1 µM is 12.3%. Besides, for the setting “compound 10 μM”, the inhibition at 10 µM stood at 95%. The inhibition at 30 µM (compound 30 μM) worked out at 100%. Besides, under “compound 50 μM”, the inhibition at 50 µM was 100%.

For `CN1CCN(CCCCCCCCCCCCNC(=O)c2ccc(-c3ncn[nH]3)cc2)CC1` [Compound 208, N-(12-(4-methylpiperazin-1-yl)dodecyl)-4-(1H-1,2,4-triazol-5-yl)benzamide], the inhibition at 0.01 µM (compound 10 nM) turned out to be 2.46%. Besides, under “compound 100 nM”, the inhibition at 0.1 µM was -0.58%. In addition, the inhibition at 1 µM (compound 1 μM) turned out to be 10.6%. Besides, the inhibition at 10 µM (compound 10 μM) worked out at 100%. In addition, the inhibition at 30 µM (compound 30 μM) stood at 100%. The inhibition at 50 µM (compound 50 μM) is 100%.

In the case of `COC(=O)C1CCN(CCCCCCCCCCCCNC(=O)c2cccnc2N)CC1` [Compound 93, methyl 1-(12-(2-aminonicotinamido)dodecyl)piperidine-4-carboxylate], the inhibition at 0.01 µM (compound 10 nM) is -12.9%. In addition, for the setting “compound 100 nM”, the inhibition at 0.1 µM turned out to be 100%. For the same compound, the inhibition at 1 µM (compound 1 μM) amounted to 100%. Where the note is “compound 10 μM”, the inhibition at 10 µM turned out to be 100%. The inhibition at 30 µM (compound 30 μM) came out at 100%. In addition, the inhibition at 50 µM (compound 50 μM) worked out at 100%.

With `Nc1ncccc1C(=O)NCCCCCCCCCCCCN1CCN(CC2CCCCC2)CC1` [Compound 113, 2-amino-N-(12-(4-(cyclohexylmethyl)piperazin-1-yl)dodecyl)nicotinamide], where the note is “compound 10 nM”, the inhibition at 0.01 µM came out at 11.1%. Also, under “compound 100 nM”, the inhibition at 0.1 µM was found to be 100%. Besides, the inhibition at 1 µM (compound 1 μM) came out at 100%. Also, the inhibition at 10 µM (compound 10 μM) is 100%. Besides, the inhibition at 30 µM (compound 30 μM) was 100%. Further, the inhibition at 50 µM (compound 50 μM) is 100%.

For the compound `CN1CCN(CCCCCCCCCCCCNC(=O)c2cccc(N)c2I)CC1` [Compound 197, 3-Amino-2-iodo-N-(12-(4-methylpiperazin-1-yl)dodecyl)benzamide], the inhibition at 0.01 µM (compound 10 nM) turned out to be 7.81%. Moreover, for the setting “compound 100 nM”, the inhibition at 0.1 µM amounted to 10.3%. Under “compound 1 μM”, the inhibition at 1 µM turned out to be 16.4%. Further, the inhibition at 10 µM (compound 10 μM) was found to be 98%. Moreover, the inhibition at 30 µM (compound 30 μM) stood at 100%. For the same compound, the inhibition at 50 µM (compound 50 μM) was found to be 100%.

For the compound `COC(=O)C1CCN(CCCCCCCCCCCCNC(=O)c2cccnc2N)C1` (stereo not drawn) [Compound 116, Methyl-1-(12-(2-aminonicotinamido)dodecyl) pyrrolidine-3-carboxylate], the “Proliferation inhibition rate (%)” value is, setting by setting: (compound 10 nM) −1.90%; (compound 100 nM) 26.17%; (compound 1 μM) 100.00%; (compound 10 μM) 100.00%; (compound 30 μM) 100.00%; (compound 50 μM) 100.00%.

`CN1CCN(CCCCCCCCCCCCNC(=O)c2ccccc2Cc2ccccc2)CC1` [Compound 196, 2-Benzyl-N-(12-(4-methylpiperazin-1-yl)dodecyl)benzamide]: the inhibition at 0.01 µM (compound 10 nM) was determined as 5.21%. For the same compound, under “compound 100 nM”, the inhibition at 0.1 µM was found to be 4.05%. Besides, the inhibition at 1 µM (compound 1 μM) is 12.3%. In addition, the inhibition at 10 µM (compound 10 μM) came to 100%. In addition, the inhibition at 30 µM (compound 30 μM) was 100%. Moreover, the inhibition at 50 µM (compound 50 μM) amounted to 100%.

Consider `COC1CCN(CCCCCCCCCCCCNC(=O)c2cccnc2N)CC1` [Compound 94, 2-amino-N-(12-(4-methoxypiperidin-1-yl)dodecyl) nicotinamide], for which the “Proliferation inhibition rate (%)” value reads like this: (compound 10 nM) −25.44%; (compound 100 nM) 100.00%; (compound 1 μM) 100.00%; (compound 10 μM) 100.00%; (compound 30 μM) 100.00%; (compound 50 μM) 100.00%.

Regarding `Nc1ncccc1C(=O)NCCCN1CCOCC1` [Compound 78, 2-amino-N-(3-morpholin-4-yl-propyl)nicotinamide], the inhibition at 0.01 µM (compound 10 nM) was -7.14%. Also, for the setting “compound 100 nM”, the inhibition at 0.1 µM was -4.19%. For the setting “compound 1 μM”, the inhibition at 1 µM was -3.73%. Besides, the inhibition at 10 µM (compound 10 μM) came out at 0.68%. For the same compound, the inhibition at 30 µM (compound 30 μM) is 4.51%. For the same compound, where the note is “compound 50 μM”, the inhibition at 50 µM is 8.76%.

Regarding `CN1CCN(CCCCCCCCCCCCNC(=O)c2ccncc2N)CC1` [Compound 209, 3-Amino-N-(12-(4-methylpiperazin-1-yl)dodecyl)isonicotinamide], the inhibition at 0.01 µM (compound 10 nM) is -1.45%. For the setting “compound 100 nM”, the inhibition at 0.1 µM amounted to 1.59%. Further, where the note is “compound 1 μM”, the inhibition at 1 µM was 18.8%. The inhibition at 10 µM (compound 10 μM) is 84.5%. Also, the inhibition at 30 µM (compound 30 μM) turned out to be 100%. Besides, the inhibition at 50 µM (compound 50 μM) stood at 100%.

As to `CN1CCN(CCCCCCCCCCCCNC(=O)c2ccccc2C(=O)NC2CCCCC2)CC1` [Compound 191, N1-Cyclohexyl-N2-(12-(4-methylpiperazin-1-yl)dodecyl)phthalamide], where the note is “compound 10 nM”, the inhibition at 0.01 µM amounted to 0%. The inhibition at 0.1 µM (compound 100 nM) is 0%. The inhibition at 1 µM (compound 1 μM) came out at 7.39%. Moreover, under “compound 10 μM”, the inhibition at 10 µM stood at 93.3%. Besides, the inhibition at 30 µM (compound 30 μM) was 100%. The inhibition at 50 µM (compound 50 μM) worked out at 100%.

Turning to `CC1CN(CCCCCCCCCCCCNC(=O)c2cccnc2N)C(C)CN1.Cl` (stereo not drawn) [Compound 36, 2-Amino-N-(12-(2,5-dimethylpiperazin-1-yl)dodecyl) nicotinamide hydrochloride], the “Proliferation inhibition rate (%)” value reads like this: (compound 10 nM) −38.89%; (compound 100 nM) 100.00%; (compound 1 μM) 100.00%; (compound 10 μM) 100.00%; (compound 30 μM) 100.00%; (compound 50 μM) 100.00%.

`C=CCN(C)CCCCCCCCCCCCNC(=O)c1cccnc1N` [Compound 96, N-(12-(allyl(methyl)amino)dodecyl)-2-aminonicotinamide]: the inhibition at 0.01 µM (compound 10 nM) is -0.58%. Under “compound 100 nM”, the inhibition at 0.1 µM was 100%. Where the note is “compound 1 μM”, the inhibition at 1 µM came to 100%. Further, the inhibition at 10 µM (compound 10 μM) worked out at 100%. Moreover, the inhibition at 30 µM (compound 30 μM) is 100%. The inhibition at 50 µM (compound 50 μM) is 100%.

In the case of `CC(C)(C)OC(=O)NC1CCN(CCCCCCCCCCCCNC(=O)c2cccnc2N)CC1` [Compound 101, tert-Butyl (1-(12-(2-aminonicotinamido)dodecyl)piperidin-4-yl) carbamate], the “Proliferation inhibition rate (%)” value runs as follows: (compound 10 nM) −0.15%; (compound 100 nM) 100.00%; (compound 1 μM) 100.00%; (compound 10 μM) 100.00%; (compound 30 μM) 100.00%; (compound 50 μM) 100.00%.

For the compound `O=C(NCCCCCCCCCCCCF)c1ccncc1Nc1cccc(C(F)(F)F)c1` [Compound 59, N-(12-fluoro-dodecyl)-3-(3-trifluoromethyl-phenylamino)-isonicotinamide], the inhibition at 0.01 µM (compound 10 nM) was determined as 0%. Under “compound 100 nM”, the inhibition at 0.1 µM turned out to be 0%. In addition, the inhibition at 1 µM (compound 1 μM) was 0%. Further, the inhibition at 10 µM (compound 10 μM) was -8.32%. In addition, for the setting “compound 30 μM”, the inhibition at 30 µM amounted to 78.4%. Moreover, under “compound 50 μM”, the inhibition at 50 µM amounted to 99.8%.

In the case of `O=C(NCCCCCCCCCCCCF)c1cnccc1Cl` [Compound 60, 4-Chloro-N-(12-fluoro-dodecyl)-nicotinamide], the inhibition at 0.01 µM (compound 10 nM) is -1.92%. In addition, for the setting “compound 100 nM”, the inhibition at 0.1 µM amounted to 8.77%. The inhibition at 1 µM (compound 1 μM) stood at 6.85%. The inhibition at 10 µM (compound 10 μM) was 63.5%. Moreover, the inhibition at 30 µM (compound 30 μM) was 100%. Further, the inhibition at 50 µM (compound 50 μM) was found to be 100%.
